Consider 13 molecules from ChEMBL document CHEMBL1138906, “Development of sulfonamide compounds as potent methionine aminopeptidase type II inhibitors with antiproliferative properties” (Bioorg Med Chem Lett, 2006).

The target in series [1] is T1, Methionine aminopeptidase 2 (Homo sapiens, UniProt P50579). The series can be described thus: Inhibition of MetAP2.
The target in series [2] is T1, Methionine aminopeptidase 2. The series can be described thus: Inhibition of MetAP2 in presence of 40 mg/ml human serum albumin.
The subject of another series is HMEC. The series can be described thus: cells. As to conditions: Homo sapiens.
Series [3] in a line: Protein binding in rat plasma at 10 uM at pH 7.4. Format: ADME, cell-free. The note with it: read-out: PPB (converted).
For series [4], the target named is Methionine aminopeptidase 1 (Homo sapiens, UniProt P53582). The series can be described thus: Inhibition of MetAP1.
Series [5] concerns the target Methionine aminopeptidase (Pyrococcus furiosus (strain ATCC 43587 / DSM 3638 / JCM 8422 / Vc1), UniProt P56218). The series is described as follows: Inhibition of Pyrococcus furiosus MetAP.
The nature of series [6]: Inhibition of AP. Set-up: species or system Homo sapiens.
Another series deals with Xaa-Pro aminopeptidase 1 (Homo sapiens, UniProt Q9NQW7). The series can be described thus: Inhibition of AP1.
The target in another series is Aminopeptidase N (Homo sapiens, UniProt P15144). The series is described as follows: Inhibition of AP-M.

pIC50: −log10 of the molar value.

T1 sequence (P50579 whole entry): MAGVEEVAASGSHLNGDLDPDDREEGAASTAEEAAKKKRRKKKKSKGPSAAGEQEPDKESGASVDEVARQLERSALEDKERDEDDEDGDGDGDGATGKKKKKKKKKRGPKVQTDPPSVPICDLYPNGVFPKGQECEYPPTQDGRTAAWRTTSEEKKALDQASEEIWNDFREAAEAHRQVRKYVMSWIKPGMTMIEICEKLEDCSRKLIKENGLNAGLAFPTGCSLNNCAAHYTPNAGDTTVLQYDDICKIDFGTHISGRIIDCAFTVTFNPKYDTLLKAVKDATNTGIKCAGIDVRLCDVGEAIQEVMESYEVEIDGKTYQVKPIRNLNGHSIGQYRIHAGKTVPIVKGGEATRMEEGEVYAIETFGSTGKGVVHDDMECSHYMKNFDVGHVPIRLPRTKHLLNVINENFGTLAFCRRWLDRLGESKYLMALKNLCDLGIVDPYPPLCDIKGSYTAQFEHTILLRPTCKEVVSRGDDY
Methionine aminopeptidase, sequence (P56218 whole entry): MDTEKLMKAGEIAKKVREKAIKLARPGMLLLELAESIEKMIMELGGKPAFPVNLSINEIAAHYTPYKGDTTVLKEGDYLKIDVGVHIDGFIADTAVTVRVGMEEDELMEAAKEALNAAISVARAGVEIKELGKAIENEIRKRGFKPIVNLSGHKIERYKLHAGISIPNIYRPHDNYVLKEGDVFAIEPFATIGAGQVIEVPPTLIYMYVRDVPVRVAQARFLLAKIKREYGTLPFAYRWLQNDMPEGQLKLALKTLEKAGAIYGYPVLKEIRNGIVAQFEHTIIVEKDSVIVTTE
Xaa-Pro aminopeptidase 1, sequence (Q9NQW7 whole entry): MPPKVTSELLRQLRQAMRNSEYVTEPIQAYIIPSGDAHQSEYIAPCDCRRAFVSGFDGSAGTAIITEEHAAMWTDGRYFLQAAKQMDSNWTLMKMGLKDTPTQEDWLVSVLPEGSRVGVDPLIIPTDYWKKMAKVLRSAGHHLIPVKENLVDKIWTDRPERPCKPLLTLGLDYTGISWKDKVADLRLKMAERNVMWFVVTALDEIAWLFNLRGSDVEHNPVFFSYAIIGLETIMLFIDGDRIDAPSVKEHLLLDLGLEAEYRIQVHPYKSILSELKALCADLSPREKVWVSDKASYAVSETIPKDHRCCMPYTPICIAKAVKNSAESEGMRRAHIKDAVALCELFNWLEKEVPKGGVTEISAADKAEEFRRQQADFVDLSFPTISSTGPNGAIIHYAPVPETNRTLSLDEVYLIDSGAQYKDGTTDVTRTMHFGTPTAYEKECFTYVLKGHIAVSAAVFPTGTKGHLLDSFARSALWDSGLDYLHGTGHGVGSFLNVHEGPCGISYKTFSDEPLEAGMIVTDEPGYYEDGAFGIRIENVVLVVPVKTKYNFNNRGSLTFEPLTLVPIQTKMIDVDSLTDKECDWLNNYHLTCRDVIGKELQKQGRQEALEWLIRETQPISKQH
Aminopeptidase N, sequence (P15144 whole entry): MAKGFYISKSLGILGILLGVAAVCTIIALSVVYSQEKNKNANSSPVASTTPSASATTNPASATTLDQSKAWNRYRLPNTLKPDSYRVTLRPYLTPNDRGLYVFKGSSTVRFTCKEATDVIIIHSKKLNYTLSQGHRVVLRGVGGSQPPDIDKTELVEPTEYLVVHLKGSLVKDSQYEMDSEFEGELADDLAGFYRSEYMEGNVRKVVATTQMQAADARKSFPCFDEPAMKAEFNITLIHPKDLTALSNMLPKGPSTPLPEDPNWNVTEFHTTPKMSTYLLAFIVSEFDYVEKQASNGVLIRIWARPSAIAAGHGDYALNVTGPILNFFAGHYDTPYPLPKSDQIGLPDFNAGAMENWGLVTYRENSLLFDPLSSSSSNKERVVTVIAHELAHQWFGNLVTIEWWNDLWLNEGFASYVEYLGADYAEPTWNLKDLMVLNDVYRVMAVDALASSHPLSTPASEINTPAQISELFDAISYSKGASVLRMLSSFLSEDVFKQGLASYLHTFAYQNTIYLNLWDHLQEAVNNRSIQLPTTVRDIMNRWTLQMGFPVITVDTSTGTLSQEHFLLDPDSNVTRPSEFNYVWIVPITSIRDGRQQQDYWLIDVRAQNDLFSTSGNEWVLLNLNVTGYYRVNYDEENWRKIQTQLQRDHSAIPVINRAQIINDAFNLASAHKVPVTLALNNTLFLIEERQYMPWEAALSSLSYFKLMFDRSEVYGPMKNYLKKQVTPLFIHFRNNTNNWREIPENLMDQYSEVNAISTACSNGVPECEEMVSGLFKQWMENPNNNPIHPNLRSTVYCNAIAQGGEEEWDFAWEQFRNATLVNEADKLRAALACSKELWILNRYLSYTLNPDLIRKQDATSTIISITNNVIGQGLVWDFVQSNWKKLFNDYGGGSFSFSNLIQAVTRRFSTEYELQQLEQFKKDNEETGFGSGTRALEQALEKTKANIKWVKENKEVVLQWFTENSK
Description for HMEC: Antiproliferative activity against HMVEC

`O=C(O)c1cc(Br)ccc1NS(=O)(=O)c1cccc2nsnc12`: the negative logarithm of the IC50 (pIC50) (in general, the IC50 on a negative log10 scale, so that one unit is a factor of ten) in series [1] was 5.41; in series [2], < 4.00; with HMEC, 5.70.

For the molecule `O=C(O)c1c(NS(=O)(=O)c2ccc(F)cc2)ccc2ccccc12`, the fraction unbound at 10 µM in [3] is 0.008. In addition, in the series with HMEC, the negative logarithm of the IC50 (pIC50) was 6.30.

Take `CCc1ccc(NS(=O)(=O)c2ccccc2)c(C(=O)O)c1`: in series [3], the fraction unbound at 10 µM was 0.002. Further, in the series on HMEC, the negative logarithm of the IC50 (pIC50) was 5.00.

In the series on HMEC, `O=C(O)c1cc(Br)ccc1NS(=O)(=O)c1ccc(Cl)cc1` gave a pIC50 of 5.52.

In the case of `Cc1ccc(NS(=O)(=O)c2ccc(Cl)cc2)c(C(=O)O)c1`, the fraction unbound at 10 µM in series [3] was 0.019. This molecule also had a negative logarithm of the IC50 (pIC50) in the series on HMEC of 6.52.

In the case of `CCCCc1ccc(NS(=O)(=O)c2ccccc2)c(C(=O)O)c1`, in the series on HMEC, the pIC50 was 4.00.

Turning to `Cc1ccc(NS(=O)(=O)c2ccccc2)c(C(=O)O)c1`, the fraction unbound at 10 µM in series [3] was 0.003. The molecule also showed a pIC50 in the series on HMEC of 7.00.

For `CC1=CCCc2ccc(NS(=O)(=O)c3ccc(F)cc3)c(C(=O)O)c21`, the pIC50 in the series on HMEC is 6.82.

As to `O=C(O)c1c(NS(=O)(=O)c2ccccc2)ccc2ccccc12`, the pIC50 in series [1] is 7.72; in series [2] it was 5.42; in series [4], 4.33; in series [5], < 4.00; in series [6], < 4.00; at Xaa-Pro aminopeptidase 1, < 4.00. For the same molecule, the pIC50 against Aminopeptidase N is < 4.00; in the series with HMEC it was 6.30. The fraction unbound at 10 µM in series [3] was 0.002.

For `CCCc1ccc(NS(=O)(=O)c2ccccc2)c(C(=O)O)c1`, the pIC50 with HMEC was 4.22.

On to `C[C@H]1CCCc2ccc(NS(=O)(=O)c3ccc(F)cc3)c(C(=O)O)c21`, for which the pIC50 in the series on HMEC is 6.89.

In the case of `Cc1cc(C)c(NS(=O)(=O)c2ccccc2)c(C(=O)O)c1`, the pIC50 in the series with HMEC is 6.40.

`O=C(O)c1c(NS(=O)(=O)c2ccc(F)cc2)ccc2c1CCCC2` showed a pIC50 with HMEC of 6.74.
